In ChEMBL document CHEMBL1126214, “Muscarinic agonist SAR of azaspirodioxolanes” (Bioorg Med Chem Lett, 1992):

Tests used:
[1] = molecular target: T1, Muscarinic acetylcholine receptor M1 (Rattus norvegicus) (UniProt P08482)
T1 sequence (whole entry): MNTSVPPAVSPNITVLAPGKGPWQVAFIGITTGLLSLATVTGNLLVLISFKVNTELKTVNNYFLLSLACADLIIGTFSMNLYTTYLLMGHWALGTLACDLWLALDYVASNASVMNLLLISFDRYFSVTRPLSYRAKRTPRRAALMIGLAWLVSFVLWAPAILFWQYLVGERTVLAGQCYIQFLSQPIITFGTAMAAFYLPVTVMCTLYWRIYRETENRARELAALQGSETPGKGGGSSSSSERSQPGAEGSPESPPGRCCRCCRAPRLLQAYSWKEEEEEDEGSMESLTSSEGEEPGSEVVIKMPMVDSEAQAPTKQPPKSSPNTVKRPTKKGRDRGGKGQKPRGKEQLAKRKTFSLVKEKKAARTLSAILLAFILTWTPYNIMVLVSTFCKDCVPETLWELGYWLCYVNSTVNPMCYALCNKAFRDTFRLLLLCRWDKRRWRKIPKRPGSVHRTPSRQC
Description: In vitro muscarinic agonist potency in the ganglion model as a functional measure of central muscarinic M1 receptor activity.

[2] = molecular target: T1, Muscarinic acetylcholine receptor M1 (Rattus norvegicus); conditions: Ileum
Description: In vitro for muscarinic M1 receptor agonist potency in the ileum model as a functional measure of peripheral muscarinic activity.

[3] = molecular target: T2, Muscarinic acetylcholine receptor M1 (Rattus norvegicus, UniProt P08482); assay: In vitro 100 nM cortex affinity to displace [3H]- -pirenzepine providing a measure of muscarinic m1 receptor antagonist affinity
T2 sequence (P08482 whole entry): T1 sequence (whole entry)

[4] = molecular target: T2, Muscarinic acetylcholine receptor M1; assay: In vitro 100 nM cortex affinity to displace [3H]- -CD providing a measure of muscarinic m1 receptor agonist affinity
[5] = molecular target: T2, Muscarinic acetylcholine receptor M1; assay: (§1) Compound was tested in vitro for its muscarinic m1 receptor agonist potency in the ileum model as a functional measure of peripheral muscarinic m1 receptor activity; type: tissue-based; conditions: read-out: pA2 (converted)
[6] = molecular target: T2, Muscarinic acetylcholine receptor M1; assay: Compound was tested in vitro for its efficacy in the ileum model as a functional measure of peripheral muscarinic m1 receptor activity; type: tissue-based; conditions: read-out: pA2 (converted)
[7] = molecular target: T1, Muscarinic acetylcholine receptor M1 (Rattus norvegicus); assay: Compound was tested in vitro for its muscarinic agonist potency in the ganglion model as a functional measure of central muscarinic m1 receptor activity
[8] = molecular target: T1, Muscarinic acetylcholine receptor M1 (Rattus norvegicus); assay: as §1; type: tissue-based

| Compound | pD2 [1] | pD2 [2] | Ki [3] | Ki [4] | Kb [5] | Kb [6] | pD2 [7] | pD2 [8] |
| --- | --- | --- | --- | --- | --- | --- | --- | --- |
| CC1OCC2(CCNCC2)O1 (centres undefined) | 5.9 | 5.1 | > 10000 nM | 145 nM | – | – | – | – |
| CCC1OCC2(CCN(C)CC2)O1 (centres undefined) | 5.5 | 5 | 1320 nM | 745 nM | – | – | – | – |
| C[C@@H]1OCC2(CCN(C)C2)O1 (stereo in doubt; trans) [listing 1 of 2 here] | – | – | > 10000 nM | 1750 nM | – | – | – | – |
| C[C@@H]1O[C@H](C[N+](C)(C)C)C[C@H]1O | 7.4 | 6.8 | – | – | – | – | – | – |
| CC1OCC2(CCCN(C)C2)O1 (centres undefined) | < 4 | < 4 | – | – | – | – | – | – |
| CC[C@H](C)[C@@H]1NC(=O)[C@H](CCCN=C(N)N)NC(=O)[C@@H](CC(=O)O)NC(=O)[C@H]([C@@H](C)CC)NC(=O)[C@@H](CCCN=C(N)N)NC(=O)CNC(=O)CNC(=O)[C@@H](Cc2ccccc2)NC(=O)[C@H](C)NC(=O)[C@@H](NC(=O)[C@H](CO)NC(=O)[C@@H](N)CO)CSSC[C@@H](C(=O)N2C[C@H](C(=O)N[C@H](CCCN=C(N)N)C(=O)O)Cc3ccccc32)NC1=O | < 4 | 4.1 | – | – | – | – | – | – |
| CN1CCC2(CC1)COC(c1ccccc1)(c1ccccc1)O2 | – | – | 0.6 nM | 8.1 nM | 10 nM | 6.31 nM | – | – |
| C[C@H]1OCC2(CN3CCC2C3)O1 (some centres undefined) | 4.4 | 4.1 | > 10000 nM | 1850 nM | – | – | – | – |
| CC1OCC2(CCN(C)CC2)S1 (centres undefined) | 5.6 | 5.1 | 3160 nM | 720 nM | – | – | – | – |
| CC1SCC2(CCN(C)CC2)S1 (centres undefined) | 5 | 4.9 | 2100 nM | 530 nM | – | – | – | – |
| C[C@@H]1OCC2(CCN(C)C2)O1 (stereo in doubt; trans) [listing 2 of 2 here] | – | 4.5 | – | – | – | – | – | – |
| C[C@@H]1OCC2(CCN(C)C2)O1 (stereo in doubt; cis) [listing 1 of 2 here] | – | – | > 10000 nM | 550 nM | – | – | – | – |
| CN1CCC2(CC1)COC(c1ccccc1)O2 (centres undefined) | – | – | 620 nM | 2800 nM | 5010 nM | – | – | – |
| C[C@@H]1OCC2(CCN(C)C2)S1 (some centres undefined) | – | – | > 10000 nM | 9150 nM | – | – | – | – |
| C[C@@H]1OCC2(CN3CCC2CC3)O1 (some centres undefined) | 6 | 4.8 | 1570 nM | 90 nM | – | – | – | – |
| C[C@H]1OC2(CCN(C)C2)CS1 (some centres undefined) | 5.7 | 5.2 | 6700 nM | 585 nM | – | – | – | – |

| Compound | pD2 [1] | pD2 [2] | Ki [3] | Ki [4] | Kb [5] | Kb [6] | pD2 [7] | pD2 [8] |
| --- | --- | --- | --- | --- | --- | --- | --- | --- |
| CN1CCC2(CC1)COC(C(Cl)(Cl)Cl)O2 (centres undefined) | – | – | 200 nM | 960 nM | – | – | – | – |
| CC1OC[C@@]2(CN3CCC2C3)O1 (some centres undefined) | – | 5.9 | 1950 nM | 30 nM | – | – | 6.5 | – |
| C#CC1OCC2(CCN(C)CC2)O1 (centres undefined) | 5.9 | 5.2 | 3000 nM | 295 nM | – | – | – | – |
| CC1OC2(CCN(C)CC2)CS1 (centres undefined) | 6.1 | 6 | 2650 nM | 185 nM | – | – | – | – |
| C[C@H]1OC2(CS1)CN1CCC2CC1 (some centres undefined) | 6.1 | 4.9 | 430 nM | 105 nM | – | – | – | – |
| C[C@@H]1OC2(CS1)CN1CCC2CC1 (some centres undefined) | 5.7 | 5.4 | 1250 nM | 515 nM | – | – | – | – |
| CC1OCC2(CC[N+](C)(C)CC2)O1 (centres undefined) | 6.1 | 5.2 | 5000 nM | 210 nM | – | – | – | – |
| C[C@@H]1OCC2(CCN(C)C2)O1 (stereo in doubt; cis) [listing 2 of 2 here] | 5.6 | 5.2 | – | – | – | – | – | – |
| C[C@H]1OC[C@@H](C[N+](C)(C)C)O1 | 7.8 | 7.5 | 2100 nM | 6.4 nM | – | – | – | – |
| CN1CCC2(CC1)COCO2 | – | 4.6 | > 10000 nM | 1200 nM | – | – | 4.6 | – |
| C[C@@H]1OCC2(CN3CCC2C3)O1 (some centres undefined) | 5.7 | 5.5 | 6400 nM | 180 nM | – | – | – | – |
| CC1C(=O)CC2(CCN(C)CC2)C1=O (centres undefined) | 6.2 | 5.5 | 4050 nM | 175 nM | – | – | – | – |
| CN1CCC2(CC1)COC(C)(C)O2 | < 4 | – | > 10000 nM | > 10000 nM | – | – | – | < 4 |
| COC1OCC2(CCN(C)CC2)O1 (centres undefined) | 5.5 | 4.7 | > 10000 nM | 870 nM | – | – | – | – |
| CCC1C(=O)CC2(CCN(C)CC2)C1=O (centres undefined) | 6.7 | 6.1 | 765 nM | 87 nM | – | – | – | – |
